Columns and labels:
[1] = target: T1, Beta-galactoside alpha-2,6-sialyltransferase 1 (Rattus norvegicus, UniProt P13721); assay: Inhibitory activity evaluated against alpha-2,6-sialyltransferase from rat liver
T1 sequence (P13721 whole entry): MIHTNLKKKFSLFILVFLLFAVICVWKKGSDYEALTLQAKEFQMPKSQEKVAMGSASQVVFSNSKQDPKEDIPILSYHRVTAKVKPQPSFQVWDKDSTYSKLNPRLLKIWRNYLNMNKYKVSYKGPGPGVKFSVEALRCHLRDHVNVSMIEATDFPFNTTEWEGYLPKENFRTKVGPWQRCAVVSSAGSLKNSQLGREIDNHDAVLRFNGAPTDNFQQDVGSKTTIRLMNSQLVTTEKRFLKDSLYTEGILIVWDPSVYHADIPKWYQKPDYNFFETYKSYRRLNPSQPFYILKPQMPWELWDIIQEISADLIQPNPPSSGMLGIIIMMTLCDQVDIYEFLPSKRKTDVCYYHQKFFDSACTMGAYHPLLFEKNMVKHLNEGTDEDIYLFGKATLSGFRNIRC

[2] = target: T2, CMP-N-acetylneuraminate-beta-1,4-galactoside alpha-2,3-sialyltransferase (Rattus norvegicus, UniProt Q02734); assay: Inhibitory activity evaluated against alpha-2,3-sialyltransferase from rat liver
T2 sequence (Q02734 whole entry): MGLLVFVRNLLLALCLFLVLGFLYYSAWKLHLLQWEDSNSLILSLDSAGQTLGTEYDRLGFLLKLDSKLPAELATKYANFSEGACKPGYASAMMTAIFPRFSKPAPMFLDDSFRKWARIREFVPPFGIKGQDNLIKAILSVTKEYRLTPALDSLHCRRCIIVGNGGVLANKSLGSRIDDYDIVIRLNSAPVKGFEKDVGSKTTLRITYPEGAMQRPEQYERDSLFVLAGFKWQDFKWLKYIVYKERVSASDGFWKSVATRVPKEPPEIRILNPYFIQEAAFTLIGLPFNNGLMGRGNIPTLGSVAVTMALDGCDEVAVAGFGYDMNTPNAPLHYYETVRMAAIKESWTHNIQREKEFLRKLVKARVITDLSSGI

Row | Compound | Ki [1] | Ki [2]
1 | Nc1ccn([C@@H]2O[C@H](COP(=O)(O)O)[C@@H](O)[C@H]2O)c(=O)n1 | 0.064 mM | 0.065 mM
2 | Nc1ccn(C2O[C@H](COP(=O)(O)OCC(=O)O)C(O)[C@H]2O)c(=O)n1 (single isomer, unassigned) | 0.37 mM | 0.71 mM
3 | Nc1ccn(C2O[C@H](COP(=O)(O)N[C@@H](Cc3c[nH]c4ccccc34)C(=O)O)C(O)[C@H]2O)c(=O)n1 (single isomer, unassigned) | 0.73 mM | 0.3 mM
4 | Nc1ccn(C2O[C@H](COP(=O)(O)NCC(=O)O)C(O)[C@H]2O)c(=O)n1 (single isomer, unassigned) | 2.4 mM | 5.3 mM
5 | Nc1ccn(C2O[C@H](COP(=O)(O)N[C@@H](CC(=O)O)C(=O)O)C(O)[C@H]2O)c(=O)n1 (single isomer, unassigned) | 2.2 mM | 5.1 mM
6 | CC(C)C[C@H](NP(=O)(O)OC[C@H]1OC(n2ccc(N)nc2=O)[C@H](O)C1O)C(=O)O (single isomer, unassigned) | 2.5 mM | 0.9 mM
7 | Nc1ccn(C2O[C@H](COP(=O)(O)N[C@@H](Cc3ccccc3)C(=O)O)C(O)[C@H]2O)c(=O)n1 (single isomer, unassigned) | 3.8 mM | 2.3 mM
8 | C[C@H](NP(=O)(O)OC[C@H]1OC(n2ccc(N)nc2=O)[C@H](O)C1O)C(=O)O (single isomer, unassigned) | 1.7 mM | 2.3 mM

Reference: ChEMBL document CHEMBL1146629, “Synthesis and evaluation of phosphoramidate amino acid-based inhibitors of sialyltransferases” (Bioorg Med Chem Lett, 2003)
